# “And” between values parts separate entries of the source, which are not always exact repeats. Equal entries are not always repeated. Where two headings read alike, the source gives them in different places.
# Columns and labels:
# [1] = for Peak Insulin Level: fasting
# Excerpt: The timing of each aerosol actuation was controlled by a Rosenthal-French dosimeter and lasted for one second. […] Inspiratory flow rate at the time of aerosol inhalation was regulated to less than 30 and, preferably about 17 liters/minute by rate limiting orifices of the type described above. During inhalation, patients inspired from residual volume to total lung capacity.
# After the sixth actuation, aerosol was inhaled from the holding chamber through a mouthpiece. […]
# To accomplish this dosing regime, volunteers inhaled 5-13 times from the holding chamber. Each inhalation was preceded by six actuations of the nebulizer.
# (§1) Subjects 3, 4 and 6 were medicated with Glyburide 10 mg/day, 15 mg/day, and 5 mg/day, respectively. Subject No. 5 was treated with Diabinese 750 mg/day. Subject No. 7 was medicated with Glyburide 20 mg/day and Subject No. 8 was unmedicated. […] Blood samples were assessed at the time of collection for glucose levels with a glucose meter (Accuchek). Determinations of plasma glucose levels were also obtained from photometric reaction with glucose hexokinase using an Hitachi 736 and 737 chemical analyzer (Boehringer Mannheim Diagnostics). The reference range for fasting adults using this technique and equipment is 3.92-6.44 SI units. […] The expected range of values for normals in the fasting state, as provided by Diagnostics Products Corp., is 18-210 SI units. An IV saline solution was running, 50% glucose was available in case the blood glucose level decreased rapidly, and a diabetologist was present during the study. […] Studies were performed in the Johns Hopkins Outpatient Clinical Research Center. All patients who participated in these experiments gave informed consent to a written description of the study, which was approved by the Institutional Review Board.
# When averaging decreases in blood glucose levels the data were normalized in terms of percent change from baseline.
# [2] = system: normal and NIDDM subjects; conditions: inhaled
# Description: as §1
# rabbits = conditions: micellar form, intrajejunal administration, reduction in blood glucose; cited from earlier work
# diabetic subjects = conditions: intranasal bile-salt aerosol; cited from earlier work
# [3] = system: normal and non-insulin-dependent non-obese diabetic subjects; conditions: rectal suppository; cited from earlier work
# [4] = system: normal subjects and non-insulin dependent diabetic (NIDDM) subjects; experiment: Blood glucose response after inhalation of aerosolized insulin; type: in vivo, human; conditions: for Maximum Decrease in Glucose (% of Baseline): fasting
# Description: The timing of each aerosol actuation was controlled by a Rosenthal-French dosimeter and lasted for one second. […] The distance between the subject's mouth and the nebulizer reduced aerosol velocity and, thus, impaction of particles in the mouth. Inspiratory flow rate at the time of aerosol inhalation was regulated to less than 30 and, preferably about 17 liters/minute by rate limiting orifices of the type described above. During inhalation, patients inspired from residual volume to total lung capacity.
# After the sixth actuation, aerosol was inhaled from the holding chamber through a mouthpiece. […] Each inhalation was proceeded by six actuations of the nebulizer.
# [5] = NIDDM subject 3, 0.21 U/kg BW inhaled
# [6] = NIDDM subject 4, 0.23 U/kg BW inhaled
# [7] = NIDDM subject 5, 0.21 U/kg BW inhaled
# [8] = NIDDM subject 6, 0.20 U/kg BW inhaled
# [9] = NIDDM subject 7, 0.20 U/kg BW inhaled
# [10] = NIDDM subject 8, 0.20 U/kg BW inhaled
# [11] = eight subjects (second dose for subjects 1 and 2), mean dose 0.21 U/kg BW inhaled
# [12] = normal subject 1, first dose, 0.09 U/kg BW inhaled
# [13] = normal subject 1, second dose, 0.19 U/kg BW inhaled
# [14] = normal subject 2, first dose, 0.11 U/kg BW inhaled
# [15] = normal subject 2, second dose, 0.21 U/kg BW inhaled
substance,measurement,setting,value
insulin: regular U-500 pork insulin (Eli Lilly) aerosolized by a jet nebulizer; background citations concern insulin given by other routes,Time to Peak Insulin Level,[1]; [5],5 min
same,log Peak Insulin Level,[1]; [5],2.7694
same,Peak Insulin Level,[1]; [5],588 SI units
same,Time to Peak Insulin Level,[1]; [6],15 min
same,log Peak Insulin Level,[1]; [6],2.2967
same,Peak Insulin Level,[1]; [6],198 SI units
same,Time to Peak Insulin Level,[1]; [7],40 min
same,log Peak Insulin Level,[1]; [7],2.3096
same,Peak Insulin Level,[1]; [7],204 SI units
same,Time to Peak Insulin Level,[1]; [8],52 min
same,log Peak Insulin Level,[1]; [8],2.3909
same,Peak Insulin Level,[1]; [8],246 SI units
same,Time to Peak Insulin Level,[1]; [9],25 min
same,log Peak Insulin Level,[1]; [9],2.0569
same,Peak Insulin Level,[1]; [9],114 SI units
same,Time to Peak Insulin Level,[1]; [10],100 min
same,log Peak Insulin Level,[1]; [10],2.7513
same,Peak Insulin Level,[1]; [10],564 SI units
same,Return of blood insulin levels to baseline,"[1]; approximately 0.2 U/kg BW inhaled, up to 200 minutes",did not return to baseline by the time the experiment was concluded in seven of the study subjects
same,"Peak Insulin Level, geometric mean",[1]; [11],254 SI units
same,"Time to Peak Insulin Level, mean",[1]; [11],35 min and 35 ± 31 min
same,"log Peak Insulin Level, mean",[1]; [11],2.4055
same,Insulin absorption across the lung mucosa compared with subcutaneous administration,[1]; inhaled aerosol,more rapid than following subcutaneous administration
same,Time to Peak Insulin Level,[1]; [12],10 min
same,log Peak Insulin Level,[1]; [12],2.1399
same,Peak Insulin Level,[1]; [12],138 SI units
same,Time to Peak Insulin Level,[1]; [13],35 min
same,log Peak Insulin Level,[1]; [13],2.3345
same,Peak Insulin Level,[1]; [13],216 SI units
same,Time to Peak Insulin Level,[1]; [14],5 min
same,log Peak Insulin Level,[1]; [14],2.4771
same,Peak Insulin Level,[1]; [14],300 SI units
same,Time to Peak Insulin Level,[1]; [15],5 min
same,log Peak Insulin Level,[1]; [15],2.3345
same,Peak Insulin Level,[1]; [15],216 SI units
same,"Time at which blood insulin levels peaked post inhalation, range",[1]; range over all subjects and doses,between five and one hundred minutes
same,Adverse symptoms from the respiratory tract,[2],No adverse symptoms from the respiratory tract were reported or signs observed
same,"Adrenergic, hypoglycemic signs or symptoms",[2]; listed as Aerosolized insulin,"lack of any signs or symptoms, including adrenergic symptoms"
same,Tolerability of aerosolized insulin,[2]; listed as Aerosolized insulin,very well tolerated
same,Tolerability of aerosolized insulin,[2]; listed as aerosolized insulin,well-tolerated
same,"Adrenergic, hypoglycemic signs or symptoms",[2]; listed as insulin aerosol,"none of the subjects had adrenergic, hypoglycemic symptoms"
same,Tolerability of aerosolized insulin,[2]; listed as insulin aerosol,well-tolerated
same,Required dose relative to intramuscular dose,rabbits,25-50 times
same,"Amount of insulin absorbed through the nasal mucosa, relative to dose delivered by intravenous injection",diabetic subjects,approximately 10%
same,"Dose required to lower blood glucose, relative to subcutaneous dose",diabetic subjects,2.5 times
same,Local effects after intranasal administration,diabetic subjects,subjects reported nasal irritation and nasal congestion
same,Complaints after rectal administration,[3],some subjects complained of abdominal discomfort or a feeling of rectal urgency
same,"Dose necessary to lower blood glucose significantly, relative to subcutaneous dose",[3],10 times
same,Time to 10% Decrease in Glucose,[4]; [5],30 min
same,Time to Lowest Glucose Level,[4]; [5],150 min
same,Maximum Decrease in Glucose (% of Baseline),[4]; [5],43%
same,"Glucose level decreased to, after insulin inhalation","[4]; NIDDM subject 3, 0.21 U/kg BW inhaled, baseline 10.58",6.05 SI units
same,Time to 10% Decrease in Glucose,[4]; [6],30 min
same,Time to Lowest Glucose Level,[4]; [6],160 min
same,Maximum Decrease in Glucose (% of Baseline),[4]; [6],71%
same,"Glucose level decreased to, after insulin inhalation","[4]; NIDDM subject 4, 0.23 U/kg BW inhaled, baseline 16.58",4.82 SI units
same,Time to 10% Decrease in Glucose,[4]; [7],40 min
same,Time to Lowest Glucose Level,[4]; [7],200 min
same,Maximum Decrease in Glucose (% of Baseline),[4]; [7],53%
same,"Glucose level decreased to, after insulin inhalation","[4]; NIDDM subject 5, 0.21 U/kg BW inhaled, baseline 12.12",5.71 SI units
same,Time to 10% Decrease in Glucose,[4]; [8],42 min
same,Time to Lowest Glucose Level,[4]; [8],140 min
same,Maximum Decrease in Glucose (% of Baseline),[4]; [8],54%
same,"Glucose level decreased to, after insulin inhalation","[4]; NIDDM subject 6, 0.20 U/kg BW inhaled, baseline 9.27",4.26 SI units
same,Time to 10% Decrease in Glucose,[4]; [9],20 min
same,Time to Lowest Glucose Level,[4]; [9],120 min
same,Maximum Decrease in Glucose (% of Baseline),[4]; [9],61%
same,"Glucose level decreased to, after insulin inhalation","[4]; NIDDM subject 7, 0.20 U/kg BW inhaled, baseline 13.94",5.49 SI units
same,Time to 10% Decrease in Glucose,[4]; [10],60 min
same,Time to Lowest Glucose Level,[4]; [10],150 min
same,Maximum Decrease in Glucose (% of Baseline),[4]; [10],49%
same,"Glucose level decreased to, after insulin inhalation","[4]; NIDDM subject 8, 0.20 U/kg BW inhaled, baseline 13.30",6.78 SI units
same,Mean maximum decrease in glucose from baseline,"[4]; NIDDM subjects, 0.2 U/kg BW inhaled",55±10%
same,Shift of blood glucose levels to the normal range,"[4]; NIDDM subjects, approximately 0.2 U/kg BW aerosolized insulin, normal range 4.20-6.44 SI units",shifted blood glucose levels of five of the six NIDDM subjects to within the normal range
same,"Maximum Decrease in Glucose (% of Baseline), mean","[4]; eight subjects (second dose for subjects 1 and 2), 0.2 U/kg BW inhaled",52±10% and 52%
same,"Time to 10% Decrease in Glucose, mean",[4]; [11],36 ± 15 min and 36 min
same,"Time to Lowest Glucose Level (time to maximum decrease in blood glucose), mean",[4]; [11],138 ± 46 min and 138 min
same,"Glucose level decreased to, after insulin inhalation","[4]; normal subject 1, 0.09 U/kg BW inhaled, baseline 4.70",4.09 SI units
same,"Glucose level decreased to, after insulin inhalation","[4]; normal subject 1, 0.19 U/kg BW inhaled, baseline 4.70",3.08 SI units
same,Time to 10% Decrease in Glucose,[4]; [12],35 min
same,Time to Lowest Glucose Level,[4]; [12],80 min
same,Maximum Decrease in Glucose (% of Baseline),[4]; [12],13%
same,Time to 10% Decrease in Glucose,[4]; [13],50 min
same,Time to Lowest Glucose Level,[4]; [13],140 min
same,Maximum Decrease in Glucose (% of Baseline),[4]; [13],34%
same,"Glucose level decreased to, after insulin inhalation","[4]; normal subject 2, 0.11 U/kg BW inhaled, baseline 3.95",3.14 SI units
same,"Glucose level decreased to, after insulin inhalation","[4]; normal subject 2, 0.21 U/kg BW inhaled, baseline 4.34",2.24 SI units
same,Time to 10% Decrease in Glucose,[4]; [14],5 min
same,Time to Lowest Glucose Level,[4]; [14],40 min
same,Maximum Decrease in Glucose (% of Baseline),[4]; [14],20%
same,Time to 10% Decrease in Glucose,[4]; [15],15 min
same,Time to Lowest Glucose Level,[4]; [15],40 min
same,Maximum Decrease in Glucose (% of Baseline),[4]; [15],48%
same,Mean maximum decrease in glucose from baseline,"[4]; normal subjects, 0.2 U/kg BW inhaled",41±10%
same,Effect on blood glucose levels,"[4]; normal subjects, approximately 0.2 U/kg BW aerosolized insulin to the mouth",effectively lowered blood glucose levels in the normal subjects
